Results from ChEMBL document CHEMBL1201862, “PubChem BioAssay data set” (2004).
Active and inactive are the calls of the source.

Legend:
[1] = biological target: T1, Tyrosine-protein phosphatase non-receptor type 22 (Homo sapiens, UniProt Q9Y2R2); assay type: functional
T1 sequence (Q9Y2R2 whole entry): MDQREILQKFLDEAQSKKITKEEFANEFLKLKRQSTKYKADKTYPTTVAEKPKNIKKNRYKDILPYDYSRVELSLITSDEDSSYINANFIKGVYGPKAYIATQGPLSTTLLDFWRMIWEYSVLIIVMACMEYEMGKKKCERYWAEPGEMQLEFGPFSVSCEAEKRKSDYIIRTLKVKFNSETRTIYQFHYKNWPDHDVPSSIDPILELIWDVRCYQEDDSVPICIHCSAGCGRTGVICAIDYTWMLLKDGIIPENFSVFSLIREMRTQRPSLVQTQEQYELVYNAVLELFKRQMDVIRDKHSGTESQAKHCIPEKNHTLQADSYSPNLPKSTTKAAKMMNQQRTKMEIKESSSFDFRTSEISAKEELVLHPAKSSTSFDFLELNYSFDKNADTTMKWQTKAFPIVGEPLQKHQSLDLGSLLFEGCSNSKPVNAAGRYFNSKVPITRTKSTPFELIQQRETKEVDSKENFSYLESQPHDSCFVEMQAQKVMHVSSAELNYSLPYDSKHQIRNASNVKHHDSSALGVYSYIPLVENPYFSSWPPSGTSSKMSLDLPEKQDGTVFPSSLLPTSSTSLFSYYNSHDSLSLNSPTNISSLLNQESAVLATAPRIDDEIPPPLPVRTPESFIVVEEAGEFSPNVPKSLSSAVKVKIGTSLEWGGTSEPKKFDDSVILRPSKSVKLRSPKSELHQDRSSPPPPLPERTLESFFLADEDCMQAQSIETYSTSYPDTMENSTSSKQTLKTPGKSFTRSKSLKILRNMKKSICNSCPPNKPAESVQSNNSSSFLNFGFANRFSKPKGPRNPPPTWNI

[2] = biological target: T1, Tyrosine-protein phosphatase non-receptor type 22; assay type: functional; remark: listed apart in the source
[3] = biological target: T2, Tyrosine-protein phosphatase non-receptor type 7 (Homo sapiens, UniProt P35236); assay type: functional
T2 sequence (P35236 whole entry): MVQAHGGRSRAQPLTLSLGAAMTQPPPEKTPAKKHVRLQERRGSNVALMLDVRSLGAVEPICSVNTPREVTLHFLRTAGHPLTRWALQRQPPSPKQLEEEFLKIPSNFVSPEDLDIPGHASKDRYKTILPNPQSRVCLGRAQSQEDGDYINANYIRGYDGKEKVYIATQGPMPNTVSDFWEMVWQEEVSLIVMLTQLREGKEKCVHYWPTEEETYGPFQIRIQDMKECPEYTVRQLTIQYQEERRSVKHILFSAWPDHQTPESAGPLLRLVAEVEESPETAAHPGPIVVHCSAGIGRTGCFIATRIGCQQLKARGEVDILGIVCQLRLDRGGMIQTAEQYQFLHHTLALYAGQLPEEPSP

[4] = biological target: T3, E3 ubiquitin-protein ligase XIAP (Homo sapiens, UniProt P98170); experiment: Counter Screen using XIAP-Bir3 for Chemical Antagonists of Bir1/2 domains of IAP-family anti-apoptotic proteins. [Related pubchem assays (depositor defined):AID1018, AID1449, AID1514, AID1638, AID1749, AID1750, AID488957, AID488963]
T3 sequence (P98170 whole entry): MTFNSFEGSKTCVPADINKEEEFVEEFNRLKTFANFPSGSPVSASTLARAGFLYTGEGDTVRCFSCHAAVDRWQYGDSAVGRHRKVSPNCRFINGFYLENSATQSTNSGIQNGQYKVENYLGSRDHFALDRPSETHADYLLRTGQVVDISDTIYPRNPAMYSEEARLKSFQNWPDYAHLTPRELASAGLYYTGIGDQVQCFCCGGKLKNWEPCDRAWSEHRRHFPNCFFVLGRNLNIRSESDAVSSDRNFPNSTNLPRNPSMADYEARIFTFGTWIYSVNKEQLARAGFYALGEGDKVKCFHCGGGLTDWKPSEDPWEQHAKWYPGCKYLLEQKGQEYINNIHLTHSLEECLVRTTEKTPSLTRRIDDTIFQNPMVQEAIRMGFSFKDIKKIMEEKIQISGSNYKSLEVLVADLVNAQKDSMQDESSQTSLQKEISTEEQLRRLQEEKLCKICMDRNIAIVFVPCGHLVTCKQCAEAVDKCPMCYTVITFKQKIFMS

[5] = biological target: T3, E3 ubiquitin-protein ligase XIAP; experiment: small molecules displacing peptide from XIAP – biochemical, IAP family, fluorescence polarization (AID 1018); assay type: functional
[6] = biological target: T4, Endoribonuclease toxin MazF (Escherichia coli K-12, UniProt P0AE70); experiment: activation of MazEF endoribonuclease cleavage – biochemical, fluorescence, single-stranded RNA substrate, uHTS hits, dose response (AID 588481); assay type: functional
T4 sequence (P0AE70 whole entry): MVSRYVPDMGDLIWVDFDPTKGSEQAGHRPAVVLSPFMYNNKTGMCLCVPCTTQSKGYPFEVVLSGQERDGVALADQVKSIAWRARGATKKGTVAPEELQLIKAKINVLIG

[7] = biological target: T4, Endoribonuclease toxin MazF; experiment: substrate-only fluorescence increase artefacts – biochemical, single-stranded RNase substrate, counter-screen for MazEF activator project, dose response (AID 588502); assay type: functional
[8] = biological target: Lysine-specific demethylase 4C (Homo sapiens, UniProt Q9H3R0); experiment: inhibition of JMJD2C H3K9me3 demethylation – biochemical, DELFIA europium, cherry-picked samples, dose response (AID 488835); assay type: functional
Lysine-specific demethylase 4C, sequence (Q9H3R0 whole entry): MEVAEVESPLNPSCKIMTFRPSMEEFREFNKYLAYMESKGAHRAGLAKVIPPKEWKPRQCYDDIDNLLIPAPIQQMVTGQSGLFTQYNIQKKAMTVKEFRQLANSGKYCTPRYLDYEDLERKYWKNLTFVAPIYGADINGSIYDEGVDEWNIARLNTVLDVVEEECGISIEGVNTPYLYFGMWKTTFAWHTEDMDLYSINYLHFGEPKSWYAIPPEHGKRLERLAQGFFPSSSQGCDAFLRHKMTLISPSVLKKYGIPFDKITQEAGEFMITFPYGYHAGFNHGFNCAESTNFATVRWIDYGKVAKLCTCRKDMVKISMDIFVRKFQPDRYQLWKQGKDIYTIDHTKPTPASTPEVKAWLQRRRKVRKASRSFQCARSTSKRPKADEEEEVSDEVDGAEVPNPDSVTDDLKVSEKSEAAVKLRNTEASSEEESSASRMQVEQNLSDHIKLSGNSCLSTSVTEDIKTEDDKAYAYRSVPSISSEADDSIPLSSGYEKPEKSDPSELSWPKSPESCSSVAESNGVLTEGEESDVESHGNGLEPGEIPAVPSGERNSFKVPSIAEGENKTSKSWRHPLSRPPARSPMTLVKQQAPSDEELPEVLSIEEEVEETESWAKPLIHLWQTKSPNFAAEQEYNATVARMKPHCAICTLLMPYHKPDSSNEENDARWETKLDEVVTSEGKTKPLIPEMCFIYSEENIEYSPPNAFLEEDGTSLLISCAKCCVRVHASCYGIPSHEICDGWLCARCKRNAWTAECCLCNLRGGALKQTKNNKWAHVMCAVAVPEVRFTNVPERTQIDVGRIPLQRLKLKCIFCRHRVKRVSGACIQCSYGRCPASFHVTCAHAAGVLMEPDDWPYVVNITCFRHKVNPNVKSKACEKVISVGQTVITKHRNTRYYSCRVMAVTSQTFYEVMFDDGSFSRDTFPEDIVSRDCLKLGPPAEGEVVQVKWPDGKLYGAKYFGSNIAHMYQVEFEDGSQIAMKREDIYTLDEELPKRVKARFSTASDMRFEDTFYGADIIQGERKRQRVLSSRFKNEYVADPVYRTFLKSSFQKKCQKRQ

[9] = test system: Streptococcus sp. 'group A'; experiment: Streptococcus pyogenes SK(-)GAS viability under kanamycin – luminescence, BacTiterGlo, confirmation, counter-screen for streptokinase expression inhibitor project, dose response (AID 1900); assay type: functional, organism-based
Trypsin = Trypsin (Sus scrofa, UniProt P00761); experiment: trypsin protease activity blockade – biochemical, quenched peptide fluorescence, cherry-pick, selectivity assay for Rce1 protease inhibitor project, dose response (AID 488789)
Trypsin, sequence (P00761 whole entry): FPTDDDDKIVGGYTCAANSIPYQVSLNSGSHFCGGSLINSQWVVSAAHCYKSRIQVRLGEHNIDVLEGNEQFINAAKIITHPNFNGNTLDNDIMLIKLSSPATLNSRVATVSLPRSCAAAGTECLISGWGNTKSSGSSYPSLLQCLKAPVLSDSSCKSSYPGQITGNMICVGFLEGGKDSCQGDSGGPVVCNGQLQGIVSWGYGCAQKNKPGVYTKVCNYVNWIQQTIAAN

Streptococcus = experiment: GAS UMAA2166 growth inhibition – luminescence, BacTiterGlo, counter-screen for streptokinase expression inhibitor project, dose response (AID 1915); assay type: functional, organism-based;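 note: potency for reduction of bacterial viability or growth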
CAAX prenyl protease 1 = CAAX prenyl protease 1 (Saccharomyces cerevisiae S288c, UniProt P47154); experiment: yeast CAAX protease Ste24 inhibition – biochemical, S. cerevisiae, plate reader, cherry-pick, dose response (AID 488815)
CAAX prenyl protease 1, sequence (P47154 whole entry): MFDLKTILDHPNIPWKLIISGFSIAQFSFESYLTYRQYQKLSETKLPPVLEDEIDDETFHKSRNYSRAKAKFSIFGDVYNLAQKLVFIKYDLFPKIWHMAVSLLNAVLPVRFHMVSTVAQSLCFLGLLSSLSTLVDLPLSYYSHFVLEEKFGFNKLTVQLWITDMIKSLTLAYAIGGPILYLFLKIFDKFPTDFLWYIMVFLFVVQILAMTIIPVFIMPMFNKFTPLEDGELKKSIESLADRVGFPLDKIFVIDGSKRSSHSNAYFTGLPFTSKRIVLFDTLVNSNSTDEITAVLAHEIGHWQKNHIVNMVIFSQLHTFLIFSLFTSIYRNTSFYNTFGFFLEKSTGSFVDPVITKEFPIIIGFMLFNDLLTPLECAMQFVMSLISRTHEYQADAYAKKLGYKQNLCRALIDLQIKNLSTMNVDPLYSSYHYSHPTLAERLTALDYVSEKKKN

**Q.** For `Cc1noc(NS(=O)(=O)c2ccc(NC(=O)c3nn(-c4ccccc4)ccc3=O)cc2)c1C`, which IC50 [1] is on record?
**A.** > 79.4 µM (inactive)

**Q.** What about the IC50 [2] of the same compound?
**A.** > 79.4 µM (inactive)

**Q.** And the IC50 [3]?
**A.** > 79.4 µM (inactive)

**Q.** Which IC50 [4] does the source give for `Cc1ccsc1/C=C(\C#N)C(=O)NCc1ccco1` here?
**A.** > 100 µM (inactive)

**Q.** And the IC50 [5]?
**A.** > 100 µM (not active)

**Q.** With `CC1(C)OC(c2ccccc2)=C/C(=C/C=C2C(=O)NC(=S)NC2=O)O1` as the compound, how does the EC50 [6] read?
**A.** 11 µM (active)

**Q.** And the EC50 [7]?
**A.** 13.9 µM (active)

**Q.** What about the AC50 [8] of the same compound?
**A.** 11.6 µM (active)

**Q.** Which results are given for `CC1COc2c(N3CCN(C)CC3)c(F)cc3c(=O)c(C(=O)O)cn1c23` (stereo not drawn) [OFLOXACIN]?
**A.** EC50 [9]: 3.03 µM (active); AC50 (Trypsin): 9.26 µM (active); EC50 (Streptococcus): 4.11 µM (active); AC50 (CAAX prenyl protease 1): 1.95 µM (active)

**Q.** `C=CCn1c(C)c(C=C2C(=O)NC(=O)NC2=O)c2ccccc21` was tested. Which AC50 [8] did it give?
**A.** 2.9 µM (active)
